Patent US20010044445A1, “AZOLE INHIBITORS OF CYTOKINE PRODUCTION” (priority 1999, published 2001)

Legend:
[1] = system: Human peripheral blood mononuclear cells; experiment: Human Concanavalin-A Proliferation Assay (Con HU Assay); assay type: cell-based; conditions: Homo sapiens, PBMC, concanavalin-A stimulated human PBMC; for inhibition at 1 µM / inhibition at 100 µM / inhibition at 10 µM: 72 h, 3 days, read-out: % Inhibition of proliferation (at concentrations of 1,10, or 100 μm); for inhibition at 1 µM: concentration 1 μm (in parentheses in the cell); for inhibition at 100 µM: concentration 100 μm (in parentheses in the cell); for IC50: tritiated thymidine; for inhibition at 10 µM: concentration 10 μm (in parentheses in the cell)
Method in brief: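 Proliferation read as tritiated thymidine uptake (0.5 μCi/well, 6 h pulse on day 3) in human PBMC cultured 3 days with 2.5 μg/ml (final) concanavalin-A. Cells, 50,000 per well in supplemented RPMI 1640 with 10% FBS, received compound 15 min before mitogen.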

Row | SMILES | melting point [°C] | inhibition at 1 µM [1] [%] | inhibition at 100 µM [1] [%] | IC50 [1] [nM] | inhibition at 10 µM [1] [%]
1 | O=C(Nc1ccc(-n2nc(C(F)(F)F)cc2C(F)(F)F)cc1)c1ccccc1C(=O)c1ccccc1 [Example 22, 2-Benzoyl-N-[4-[3,5-bis(trifluoromethyl)-1H-pyrazol-1-yl]phenyl]benzamide] | 204 to 205 | 14 |  |  | 
2 | N#Cc1cccc(NC(=O)c2ccc(-n3nc(C(F)(F)F)cc3C(F)(F)F)cc2)c1 [Example 186, 4-[3,5-Bis(trifluoromethyl)-1H-pyrazol-1-yl]-N-(3-cyanophenyl)benzamide] | 195 to 196 | 14 |  |  | 
3 | Cc1cccc(C(=O)Nc2ccc(-n3nc(C(F)(F)F)cc3C(F)(F)F)cc2)c1 [Example 75, N-[4-[3,5-bis(trifluoromethyl)-1H-pyrazol-1-yl]phenyl]-3-methylbenzamide] | 137 to 139 |  | 100 | 368 | 
4 | CC(C)(C)OC(=O)N1CCCC1C(=O)Nc1ccc(-n2nc(C(F)(F)F)cc2C(F)(F)F)cc1 (centres unmarked) [Example 246, 1,1-Dimethylethyl 2-[[[4-[3,5-bis(trifluoromethyl)-1H-pyrazol-1-yl]phenyl]amino]carbonyl]-1-pyrrolidinecarboxylate] | 70 to 72 | 47 |  |  | 
5 | O=C(Nc1ccc(-n2nc(C(F)(F)F)cc2C(F)(F)F)cc1)Nc1ccc(Cl)cc1[N+](=O)[O-] [Example 48, N-[4-[3,5-bis(trifluoromethyl)-1H-pyrazol-1-yl]phenyl]-N′-(4-chloro-2-nitrophenyl)urea] | 225 to 227 | 85 |  | 468 | 
6 | CC(=O)c1ccc(C(=O)Nc2ccc(-n3nc(C(F)(F)F)cc3C(F)(F)F)cc2)cc1 [Example 119, 4-Acetyl-N-[4-[3,5-bis(trifluoromethyl)-1H-pyrazol-1-yl]phenyl]benzamide] | 203 to 204 |  |  | 572 | 100
7 | Cc1nnsc1C(=O)Nc1ccc(-n2nc(C(F)(F)F)cc2C#N)cc1 [Example 302, N-(4-(5-cyano-3-(trifluoromethyl)-1H-pyrazol-1-yl)phenyl)-4-methyl-1,2,3-thiadiazole-5-carboxamide] | 193 to 195 |  |  | 358 | 
8 | CS(=O)(=O)c1ccc(C(=O)Nc2ccc(-n3nc(C(F)(F)F)cc3C(F)(F)F)cc2)c(Cl)c1 [Example 207, N-[4-[3,5-bis(trifluoromethyl)-1H-pyrazol-1-yl]phenyl]-2-chloro-4-(methylsulfonyl)benzamide] | 219 to 220 |  |  | 372 | 100
9 | O=C(Nc1ccc(-n2nc(C(F)(F)F)cc2C(F)(F)F)cc1)c1ccc(C(F)(F)F)cc1 [Example 89, N-[4-[3,5-bis(trifluoromethyl)-1H-pyrazol-1-yl]phenyl]-4-(trifluoromethyl)benzamide] | 170 to 172 |  | 99 | 1230 | 
10 | Cc1nnsc1C(=O)Nc1ccc(-n2nc(-c3nccs3)cc2C#N)cc1 [Example 340, N-(4-(5-cyano-3-(1,3-thiazol-2-yl)-1H-pyrazol-1-yl)phenyl)-4-methyl-1,2,3-thiadiazole-5-carboxamide] | 230 |  |  | 251 | 
11 | O=C(Nc1ccc(-n2nc(C(F)(F)F)cc2C(F)(F)F)cc1)c1ccc([N+](=O)[O-])cc1 [Example 93, N-[4-[3,5-bis(trifluoromethyl)-1H-pyrazol-1-yl]phenyl]-4-nitrobenzamide] | 185 to 188 |  | 100 | 365 | 
12 | O=C(Nc1ccc(-n2nc(C(F)(F)F)cc2C(F)(F)F)cc1)C1CCCCCC1 [Example 18, N-[4[3,5-bis(trifluoromethyl)-1H-pyrazol-1-yl]phenyl]cycloheptanecarboxamide] | 174 to 175 |  | 100 | 374 | 

Now from value to compound, other results behind:

Row | melting point [°C] | SMILES | inhibition at 1 µM [1] [%] | inhibition at 100 µM [1] [%] | IC50 [1] [nM] | inhibition at 10 µM [1] [%]
13 | 144 to 145 | O=C(CCCl)Nc1ccc(-n2nc(C(F)(F)F)cc2C(F)(F)F)cc1 [Example 70, N-[4-[3,5-bis(trifluoromethyl)-1H-pyrazol-1-yl]phenyl]-3-chloropropanamide] |  | 100 | 913 | 
14 | 150 to 151 | N#Cc1cc(C(F)(F)F)nn1-c1ccc(NC(=O)c2cccnc2F)cc1 [Example 306, N-(4-(5-cyano-3-(trifluoromethyl)-1H-pyrazol-1-yl)phenyl)-2-fluoronicotinamide] |  |  | 265 | 
15 | 142 to 143 | O=C(Nc1cccc(-n2nc(C(F)(F)F)cc2C(F)(F)F)c1)c1c(F)cccc1F [Example 224, N-[3-[3,5-bis(trifluoromethyl)-1H-pyrazol-1-yl]phenyl]-2,6-difluorobenzamide] | 2 |  |  | 
16 | 109 to 111 | O=C(Nc1ccc(-n2nc(C(F)(F)F)cc2C(F)(F)F)cc1)c1cc(F)c(F)cc1F [Example 228, N-[4-[3,5-bis(trifluoromethyl)-1H-pyrazol-1-yl]phenyl]-2,4,5-trifluorobenzamide] |  |  | 147 | 99
17 | 119 to 120 | Cc1ccoc1C(=O)Nc1ccc(-n2nc(C(F)(F)F)cc2C(F)(F)F)cc1 [Example 252, N-[4-[3,5-bis(trifluoromethyl)-1H-pyrazol-1-yl]phenyl]-3-methyl-2-furancarboxamide] | 36 |  |  | 
18 | 126 to 128 | O=C(Nc1ccc(-n2nc(C(F)(F)F)cc2C(F)(F)F)cc1)c1ccc(F)cc1F [Example 135, N-[4-[3,5-bis(trifluoromethyl)-1H-pyrazol-1-yl]phenyl]-2,4-difluorobenzamide] |  | 100 | 207 | 
19 | 160 to 162 | C=C(C)C(=O)Nc1ccc(-n2nc(C(F)(F)F)cc2C(F)(F)F)cc1 [Example 295, N-(4-(3,5-bis(trifluoromethyl)-1H-pyrazol-1-yl)phenyl)-2-methylacrylamide] |  |  | 232 | 
20 | 158 to 159 | Cc1nc(C)c(C(=O)Nc2ccc(-n3nc(C(F)(F)F)cc3C(F)(F)F)cc2)s1 [Example 105, N-[4-[3,5-bis(trifluoromethyl)-1H-pyrazol-1-yl]phenyl]-2,4-dimethyl-5-thiazolecarboxamide] |  |  | 387 | 100
21 | 182 to 184 | [N-]=[N+]=Nc1ccc(C(=O)Nc2ccc(-n3nc(C(F)(F)F)cc3C(F)(F)F)cc2)cc1 [Example 60, 4-Azido-N-[4-[3,5-bis(trifluoromethyl)-1H-pyrazol-1-yl]phenyl]benzamide] |  | 100 | 296 | 
22 | 203 to 205 | Cc1cc(C)c(C(=O)Nc2ccc(-n3nc(C(F)(F)F)cc3C(F)(F)F)cc2)c(C)c1 [Example 78, N-[4-[3,5-bis(trifluoromethyl)-1H-pyrazol-1-yl]phenyl]-2,4,6-trimethylbenzamide] |  | 95 | 607 | 
23 | 203 to 204 | O=C(Nc1ccc(-n2nc(C(F)(F)F)cc2C(F)(F)F)cc1)Nc1cccc([N+](=O)[O-])c1 [Example 31, N-[4-[3,5-bis(trifluoromethyl)-1H-pyrazol-1-yl]phenyl]-N′-(3-nitrophenyl)urea] |  | 100 | 4040 | 
24 | 220 to 221 | CC#CC(=O)Nc1ccc(-n2nc(C(F)(F)F)cc2C(F)(F)F)cc1 [Example 12, N-[4-[3,5-bis(trifluoromethyl)-1H-pyrazol-1-yl]phenyl]-2-butynamide] |  |  | 427 | 98
25 | 244 to 245 | NC(=O)c1cccc(C(=O)Nc2ccc(-n3nc(C(F)(F)F)cc3C(F)(F)F)cc2)c1 [Example 138, N-[4-[3,5-bis(trifluoromethyl)-1H-pyrazol-1-yl]phenyl]-1,3-benzenedicarboxamide] |  |  | 364 | 99
26 | 153 to 155 | O=C(Nc1ccc(-n2nc(C(F)(F)F)cc2-c2cccs2)cc1)c1ccncc1F [Example 311, 3-fluoro-N-(4-(5-(2-thienyl)-3-(trifluoromethyl)-1H-pyrazol-1-yl)phenyl)isonicotinamide] |  |  | 323 | 
27 | 113 to 116 | O=C(Nc1ccc(-n2nc(C(F)(F)F)cc2C(F)(F)F)cc1)C1CCCO1 (centres unmarked) [Example 241, N-[4-[3,5-bis(trifluoromethyl)-1H-pyrazol-1-yl]phenyl]tetrahydro-2-furancarboxamide] | 10 |  |  | 
28 | 178 to 179 | O=C(Nc1ccc(-n2nc(C(F)(F)F)cc2C(F)(F)F)cc1)c1ccc(F)cc1C(F)(F)F [Example 201, N-[4-[3,5-bis(trifluoromethyl)-1H-pyrazol-1-yl]phenyl]-4-fluoro-2-(trifluoromethyl)benzamide] |  |  | 364 | 100
29 | 133 to 134 | N#Cc1ccc(C(=O)Nc2cccc(-n3nc(C(F)(F)F)cc3C(F)(F)F)c2)cc1 [Example 238, N-[3-[3,5-bis(trifluoromethyl)-1H-pyrazol-1-yl]phenyl]-4-cyanobenzamide] | 3 |  |  | 
30 | 172 to 173 | O=C1CCC(C(=O)Nc2ccc(-n3nc(C(F)(F)F)cc3C(F)(F)F)cc2)O1 (centres unmarked) [Example 254, N-[4-[3,5-bis(trifluoromethyl)-1H-pyrazol-1-yl]phenyl]tetrahydro-5-oxo-2-furancarboxamide] | 9 |  |  | 
